This note sets out measurements from US8471005B2 (Cephalon, Inc., priority 2008, dated 2013).

A value given as a limit tells only on which side of the number the result lay.

One assay has as its target T1, ALK (Homo sapiens, UniProt Q9UM73).
T1 construct: host or cells: baculovirus expression system
Description: ALK Kinase Assay (ELISA/TRF, PLC-γ substrate). The assay is classed as biochemical. Particulars: ALK Kinase Inhibition; read-out: ALK Potency. Put shortly: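 Time-resolved fluorescence ELISA using Eu-N1 PT66 antibody to detect phosphorylated PLC-γ (coated at 10 μg/mL). Enzyme at 30 ng/ml ALK; 15 min incubation, 37° C.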

For another assay, the target named is T2, JAK2 (Homo sapiens, UniProt O60674).
T2 construct: host or cells: baculovirus expression system
T2 sequence (O60674 whole entry): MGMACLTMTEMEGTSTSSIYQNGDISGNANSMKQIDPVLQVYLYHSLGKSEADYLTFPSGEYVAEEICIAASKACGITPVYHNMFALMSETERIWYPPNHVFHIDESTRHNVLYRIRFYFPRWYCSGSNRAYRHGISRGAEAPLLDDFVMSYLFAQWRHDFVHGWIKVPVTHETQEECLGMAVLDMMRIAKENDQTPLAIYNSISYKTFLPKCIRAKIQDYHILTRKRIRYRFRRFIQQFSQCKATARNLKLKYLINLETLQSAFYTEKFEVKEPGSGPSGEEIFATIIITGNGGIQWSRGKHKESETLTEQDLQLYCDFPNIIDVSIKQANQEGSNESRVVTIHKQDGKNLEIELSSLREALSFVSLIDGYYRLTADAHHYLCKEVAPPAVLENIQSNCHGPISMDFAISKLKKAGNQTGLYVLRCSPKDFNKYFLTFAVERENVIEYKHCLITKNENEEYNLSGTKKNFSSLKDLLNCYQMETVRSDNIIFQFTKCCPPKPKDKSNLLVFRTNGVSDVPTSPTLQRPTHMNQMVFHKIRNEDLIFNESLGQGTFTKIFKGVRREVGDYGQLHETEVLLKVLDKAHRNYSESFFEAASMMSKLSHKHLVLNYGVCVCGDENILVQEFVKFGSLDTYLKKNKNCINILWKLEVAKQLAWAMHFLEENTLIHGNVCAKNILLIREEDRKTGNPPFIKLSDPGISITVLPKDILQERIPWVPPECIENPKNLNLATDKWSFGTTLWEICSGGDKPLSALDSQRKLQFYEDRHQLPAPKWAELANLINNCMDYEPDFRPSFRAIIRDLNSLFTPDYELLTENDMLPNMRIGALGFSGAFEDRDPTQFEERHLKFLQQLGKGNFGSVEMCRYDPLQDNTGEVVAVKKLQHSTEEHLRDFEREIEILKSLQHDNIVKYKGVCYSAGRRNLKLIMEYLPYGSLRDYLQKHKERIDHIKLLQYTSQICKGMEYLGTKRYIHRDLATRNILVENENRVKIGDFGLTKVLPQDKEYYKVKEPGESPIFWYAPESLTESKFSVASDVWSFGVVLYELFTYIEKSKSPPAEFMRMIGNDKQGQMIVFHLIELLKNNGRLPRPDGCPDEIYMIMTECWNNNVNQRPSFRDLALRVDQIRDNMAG
Description: Recombinant Human JAK2 Kinase Assay (TRF). The assay is classed as biochemical. The following applies: JAK2 Kinase Inhibition; read-out: JAK2 Potency. Put shortly: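 Kinase activity of baculovirus-expressed JAK2 is followed on a surface-immobilised biotinylated peptide, with the reaction run for 20 min at room temperature in buffer containing 0.2 μM ATP and manganese. Phosphorylation is read with Eu-N1 PY100 antibody.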

T1 sequence (Q9UM73 19-1620): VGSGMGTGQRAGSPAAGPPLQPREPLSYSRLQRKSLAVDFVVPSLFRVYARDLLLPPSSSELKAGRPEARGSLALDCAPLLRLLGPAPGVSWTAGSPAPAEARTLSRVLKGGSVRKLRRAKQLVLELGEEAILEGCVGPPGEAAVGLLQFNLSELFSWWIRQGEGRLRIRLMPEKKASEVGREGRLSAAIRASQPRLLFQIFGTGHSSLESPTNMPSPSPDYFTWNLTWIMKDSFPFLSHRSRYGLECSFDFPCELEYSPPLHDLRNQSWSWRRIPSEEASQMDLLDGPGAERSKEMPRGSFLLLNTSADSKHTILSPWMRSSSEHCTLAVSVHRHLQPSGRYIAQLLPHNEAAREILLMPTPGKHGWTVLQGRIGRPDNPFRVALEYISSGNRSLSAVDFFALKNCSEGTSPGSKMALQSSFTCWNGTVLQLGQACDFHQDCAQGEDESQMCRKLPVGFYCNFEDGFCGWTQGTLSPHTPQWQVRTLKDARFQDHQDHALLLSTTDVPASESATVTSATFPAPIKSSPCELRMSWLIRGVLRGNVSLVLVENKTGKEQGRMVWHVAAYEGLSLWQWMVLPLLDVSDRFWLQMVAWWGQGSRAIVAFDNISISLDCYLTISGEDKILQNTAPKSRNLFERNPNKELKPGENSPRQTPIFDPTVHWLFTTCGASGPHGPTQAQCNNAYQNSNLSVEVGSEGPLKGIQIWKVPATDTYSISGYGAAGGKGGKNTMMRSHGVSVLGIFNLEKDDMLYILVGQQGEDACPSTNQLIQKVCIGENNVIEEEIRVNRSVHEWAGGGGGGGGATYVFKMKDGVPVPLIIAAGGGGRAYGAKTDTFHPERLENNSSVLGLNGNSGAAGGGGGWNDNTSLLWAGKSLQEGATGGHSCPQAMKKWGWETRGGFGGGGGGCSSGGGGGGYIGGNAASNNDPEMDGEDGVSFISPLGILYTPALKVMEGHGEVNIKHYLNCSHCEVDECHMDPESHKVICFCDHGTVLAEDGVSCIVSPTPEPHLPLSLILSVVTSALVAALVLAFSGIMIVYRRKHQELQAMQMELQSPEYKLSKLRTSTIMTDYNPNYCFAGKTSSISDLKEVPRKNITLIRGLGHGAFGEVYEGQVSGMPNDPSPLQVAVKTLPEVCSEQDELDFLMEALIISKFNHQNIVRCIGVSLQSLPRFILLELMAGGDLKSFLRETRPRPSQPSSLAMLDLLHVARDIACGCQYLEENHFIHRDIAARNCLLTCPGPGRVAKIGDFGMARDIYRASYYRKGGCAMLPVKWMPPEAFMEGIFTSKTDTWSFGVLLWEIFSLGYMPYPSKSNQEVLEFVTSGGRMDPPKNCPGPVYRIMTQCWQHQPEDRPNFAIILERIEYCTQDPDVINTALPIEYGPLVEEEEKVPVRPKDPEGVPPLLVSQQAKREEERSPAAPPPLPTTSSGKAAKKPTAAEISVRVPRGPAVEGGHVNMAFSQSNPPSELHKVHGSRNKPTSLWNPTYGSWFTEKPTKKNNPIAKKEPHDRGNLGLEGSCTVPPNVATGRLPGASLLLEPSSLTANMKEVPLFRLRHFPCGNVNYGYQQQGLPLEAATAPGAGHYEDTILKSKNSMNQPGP

With `COc1cc(N2CCC(N3CCOCC3)CC2)ccc1Nc1ncc2ccc(-c3ccccc3N(C)S(C)(=O)=O)n2n1` [Example 1453, N-(2-{2-[2-Methoxy-4-(4-morpholin-4-yl-piperidin-1-yl)-phenylamino]-pyrrolo[2,1-f][1,2,4]triazin-7-yl}-phenyl)-N-methyl-methanesulfonamide], the IC50 on ALK was under 100 nM; on JAK2, 100 to 1000 nM.

For `COc1cc(N2CCC(N3CCOCC3)CC2)ccc1Nc1ncc2ccc(-c3ccccc3C(C)=O)n2n1` [Example 1454, 1-(2-{2-[2-Methoxy-4-(4-morpholin-4-yl-piperidin-1-yl)-phenylamino]-pyrrolo[2,1-f][1,2,4]triazin-7-yl}-phenyl)-ethanone], the IC50 at ALK is under 100 nM; on JAK2 it was 100 to 1000 nM.

As for `COc1cc(N2CCC(N3CCOCC3)CC2)ccc1Nc1ncc2ccc(-c3ccccc3OC(F)(F)F)n2n1` [Example 1455, [2-Methoxy-4-(4-morpholin-4-yl-piperidin-1-yl)-phenyl]-[7-(2-trifluoromethoxy-phenyl)-pyrrolo[2,1-f][1,2,4]triazin-2-yl]-amine], the IC50 on ALK and at JAK2 was under 100 nM each time.

With `CN(c1ccccc1-c1ccc2cnc(Nc3ccc(N4CCC(N5CCOCC5)CC4)cc3)nn12)S(C)(=O)=O` [Example 1456, N-Methyl-N-(2-{2-[4-(4-morpholin-4-yl-piperidin-1-yl)-phenylamino]-pyrrolo[2,1-f][1,2,4]triazin-7-yl}-phenyl)-methanesulfonamide], the IC50 on ALK and on JAK2 was under 100 nM throughout.

As for `COc1cc(N2CCN(C)CC2)ccc1Nc1ncc2ccc(-c3ccccc3N(C)S(C)(=O)=O)n2n1` [Example 1457, N-(2-{2-[2-Methoxy-4-(4-methyl-piperazin-1-yl)-phenylamino]-pyrrolo[2,1-f][1,2,4]triazin-7-yl}-phenyl)-N-methyl-methanesulfonamide], the IC50 on ALK was under 100 nM; at JAK2 it was 100 to 1000 nM.

Take `CCN(c1ccccc1-c1ccc2cnc(Nc3ccc(N4CCC(N5CCOCC5)CC4)cc3OC)nn12)S(C)(=O)=O` [Example 1460, N-Ethyl-N-(2-{2-[2-methoxy-4-(4-morpholin-4-yl-piperidin-1-yl)-phenylamino]-pyrrolo[2,1-f][1,2,4]triazin-7-yl}-phenyl)-methanesulfonamide]: the IC50 on ALK and on JAK2 was under 100 nM in each case.

Consider `COc1cc(N2CCC(N3CCOCC3)CC2)ccc1Nc1ncc2ccc(-c3ccccc3N(CC3CC3)S(C)(=O)=O)n2n1` [Example 1461, N-Cyclopropylmethyl-N-(2-{2-[2-methoxy-4-(4-morpholin-4-yl-piperidin-1-yl)-phenylamino]-pyrrolo[2,1-f][1,2,4]triazin-7-yl}-phenyl)-methanesulfonamide], for which the IC50 on ALK and at JAK2 was under 100 nM throughout.

As for `COCCN(c1ccccc1-c1ccc2cnc(Nc3ccc(N4CCC(N5CCOCC5)CC4)cc3OC)nn12)S(C)(=O)=O` [Example 1462, N-(2-Methoxy-ethyl)-N-(2-{2-[2-methoxy-4-(4-morpholin-4-yl-piperidin-1-yl)-phenylamino]-pyrrolo[2,1-f][1,2,4]triazin-7-yl}-phenyl)-methanesulfonamide], the IC50 on ALK and on JAK2 was 100 to 1000 nM throughout.

`COc1cc(N2CCC(N3CCOCC3)CC2)ccc1Nc1ncc2ccc(-c3ccccc3N(CCF)S(C)(=O)=O)n2n1` [Example 1463, N-(2-Fluoro-ethyl)-N-(2-{2-[2-methoxy-4-(4-morpholin-4-yl-piperidin-1-yl)-phenylamino]-pyrrolo[2,1-f][1,2,4]triazin-7-yl}-phenyl)-methanesulfonamide]: the IC50 at ALK and on JAK2 was under 100 nM throughout.

Regarding `COc1cc(N2CCC(N3CCOCC3)CC2)ccc1Nc1ncc2ccc(-c3ccccc3C(F)(F)F)n2n1` [Example 1464, [2-Methoxy-4-(4-morpholin-4-yl-piperidin-1-yl)-phenyl]-[7-(2-trifluoromethyl-phenyl)-pyrrolo[2,1-f][1,2,4]triazin-2-yl]-amine], the IC50 at ALK is under 100 nM; on JAK2, 100 to 1000 nM.

With `COc1cc(N2CCC(N3CCOCC3)CC2)ccc1Nc1ncc2ccc(-c3cccc(OC)c3OC)n2n1` [Example 1465, [7-(2,3-Dimethoxy-phenyl)-pyrrolo[2,1-f][1,2,4]triazin-2-yl]-[2-methoxy-4-(4-morpholin-4-yl-piperidin-1-yl)-phenyl]-amine], the IC50 at ALK and on JAK2 was under 100 nM throughout.

Regarding `COc1cc(N2CCC(N3CCOCC3)CC2)ccc1Nc1ncc2ccc(-c3ccccc3Cl)n2n1` [Example 1466, [7-(2-Chloro-phenyl)-pyrrolo[2,1-f][1,2,4]triazin-2-yl]-[2-methoxy-4-(4-morpholin-4-yl-piperidin-1-yl)-phenyl]-amine], the IC50 at ALK and on JAK2 was under 100 nM each time.

Consider `COc1cc(N2CCC(C)(N3CCOCC3)CC2)ccc1Nc1ncc2ccc(-c3ccccc3OC)n2n1` [Example 1467], for which the IC50 on ALK and at JAK2 was under 100 nM in each case.

For `COc1cc(N2CCC(C)(N3CCOCC3)CC2)ccc1Nc1ncc2ccc(-c3ccccc3N(C)S(C)(=O)=O)n2n1` [Example 1468, N-(2-{2-[2-Methoxy-4-(4-methyl-4-morpholin-4-yl-piperidin-1-yl)-phenylamino]-pyrrolo[2,1-f][1,2,4]triazin-7-yl}-phenyl)-N-methyl-methanesulfonamide], the IC50 was under 100 nM at ALK and 100 to 1000 nM at JAK2.

As to `COc1cc(N2CCC(F)(F)CC2)ccc1Nc1ncc2ccc(-c3ccccc3N(C)S(C)(=O)=O)n2n1` [Example 1469, N-(2-{2-[4-(4,4-Difluoro-piperidin-1-yl)-2-methoxy-phenylamino]-pyrrolo[2,1-f][1,2,4]triazin-7-yl}-phenyl)-N-methyl-methanesulfonamide], the IC50 at ALK is under 100 nM; at JAK2, 100 to 1000 nM.

Regarding `COc1cc(N2CCC(F)(F)CC2)ccc1Nc1ncc2ccc(-c3ccccc3OC)n2n1` [Example 1470, [4-(4,4-Difluoro-piperidin-1-yl)-2-methoxy-phenyl]-[7-(2-methoxy-phenyl)-pyrrolo[2,1-f][1,2,4]triazin-2-yl]-amine], the IC50 at ALK is 100 to 1000 nM; at JAK2 it was under 100 nM.

With `COc1cc(N2CCN(C3CCOCC3)CC2)ccc1Nc1ncc2ccc(-c3ccccc3N(C)S(C)(=O)=O)n2n1` [Example 1471, N-[2-(2-{2-Methoxy-4-[4-(tetrahydro-pyran-4-yl)-piperazin-1-yl]-phenylamino}-pyrrolo[2,1-f][1,2,4]triazin-7-yl)-phenyl]-N-methyl-methanesulfonamide], the IC50 is under 100 nM at ALK and 100 to 1000 nM on JAK2.

On to `COc1cc(N2CCN(C3CCOCC3)CC2)ccc1Nc1ncc2ccc(-c3ccccc3OC)n2n1` [Example 1472, [7-(2-Methoxy-phenyl)-pyrrolo[2,1-f][1,2,4]triazin-2-yl]-{2-methoxy-4-[4-(tetrahydro-pyran-4-yl)-piperazin-1-yl]-phenyl}-amine], for which the IC50 at ALK and on JAK2 was under 100 nM each time.

With `COc1cc(N2CCC(N3CCOCC3)CC2)ccc1Nc1ncc2ccc(-c3ccccc3F)n2n1` [Example 1473, [7-(2-Fluoro-phenyl)-pyrrolo[2,1-f][1,2,4]triazin-2-yl]-[2-methoxy-4-(4-morpholin-4-yl-piperidin-1-yl)-phenyl]-amine], the IC50 at ALK and at JAK2 was under 100 nM in each case.

For `COc1cc(N2CCC(N3CCC(F)(F)CC3)CC2)ccc1Nc1ncc2ccc(-c3ccccc3N(C)S(C)(=O)=O)n2n1` [Example 1474, N-(2-{2-[4-(4,4-Difluoro-[1,4′]bipiperidinyl-1′-yl)-2-methoxy-phenylamino]-pyrrolo[2,1-f][1,2,4]triazin-7-yl}-phenyl)-N-methyl-methanesulfonamide], the figures for the IC50 at ALK and on JAK2 were under 100 nM and 100 to 1000 nM, respectively.

For the molecule `COc1cc(N2CCC(N3CCC(F)(F)CC3)CC2)ccc1Nc1ncc2ccc(-c3ccccc3OC)n2n1` [Example 1475, [4-(4,4-Difluoro-[1,4′]bipiperidinyl-1′-yl)-2-methoxy-phenyl]-[7-(2-methoxy-phenyl)-pyrrolo[2,1-f][1,2,4]triazin-2-yl]-amine], the IC50 is under 100 nM on ALK and 100 to 1000 nM on JAK2.

Take `COc1ccc(OC)c(-c2ccc3cnc(Nc4ccc(N5CCC(N6CCOCC6)CC5)cc4OC)nn23)c1` [Example 1476, [7-(2,5-Dimethoxy-phenyl)-pyrrolo[2,1-f][1,2,4]triazin-2-yl]-[2-methoxy-4-(4-morpholin-4-yl-piperidin-1-yl)-phenyl]-amine]: the figures for the IC50 at ALK and at JAK2 were under 100 nM and 100 to 1000 nM, respectively.

Turning to `COc1ccc(OC)c(-c2ccc3cnc(Nc4ccc(N5CCN(C[C@H](C)O)CC5)cc4OC)nn23)c1` [Example 1477, (S)-1-(4-{4-[7-(2,5-Dimethoxy-phenyl)-pyrrolo[2,1-f][1,2,4]triazin-2-ylamino]-3-methoxy-phenyl}-piperazin-1-yl)-propan-2-ol], the results for the IC50 on ALK and on JAK2 were under 100 nM and 1000 to 10000 nM, respectively.

For `COc1c(Nc2ncc3ccc(-c4ccccc4N(C)S(C)(=O)=O)n3n2)ccc(N2CCN(C[C@H](C)O)CC2)c1F` [Example 1478, N-[2-(2-{3-Fluoro-4-[4-((S)-2-hydroxy-propyl)-piperazin-1-yl]-2-methoxy-phenylamino}-pyrrolo[2,1-f][1,2,4]triazin-7-yl)-phenyl]-N-methyl-methanesulfonamide], the values for the IC50 at ALK and at JAK2 were under 100 nM and 1000 to 10000 nM, respectively.
